Measurements published in US6440990B1, “O-alkylated rapamycin derivatives and their use, particularly as immunosuppressants” (Novartis AG, priority 1992, dated 2002).

Legend:
[1] = Standard in vitro assays of immunosuppressivity in comparison to FK506 and rapamycin; type: cell-based
Description: This can be shown in standard in vitro assays in comparison to FK506 and rapamycin. […] Nonimmunosuppressivity can also be shown in the in vivo models 1-7 above.

[2] = system: Balb/c spleen cells stimulated with irradiated CBA spleen cells; conditions: cited from earlier work
[3] = system: interleukin-6 (IL-6)-dependent mouse hybridoma cell line; conditions: cited from earlier work
IL-2 transcription = conditions: IL-2 reporter gene assay; cited from earlier work

With `CO[C@H]1C[C@@H]2CC[C@@H](C)[C@@](O)(O2)C(=O)C(=O)N2CCCC[C@H]2C(=O)O[C@H]([C@H](C)C[C@@H]2CC[C@@H](O)[C@H](OC)C2)CC(=O)[C@H](C)/C=C(\C)[C@@H](OC)[C@@H](OC)C(=O)[C@H](C)C[C@H](C)/C=C/C=C/C=C/1C` [Example 21, 28-O-Methyl-rapamycin] the “immunosuppressivity (in words)” value [1] was “not immunosuppressive”.

In the case of Rapamycin, the “inhibition of the mixed lymphocyte reaction (in words)” value [2] is given as “very potent inhibitors”, the “inhibition of IL-6 dependent T-cell proliferation (in words)” value [3] is given as “strongly inhibits” and the “inhibition of IL-2 transcription (in words)” value (IL-2 transcription) is given as “not active”.
